pIC50: −log10 of the molar value. A value given as a limit tells only on which side of the number the result lay.

The target of this assay is T1, human IDO1 (Homo sapiens, UniProt P14902).
T1 construct: expressed in transfected cells
T1 sequence (P14902 whole entry): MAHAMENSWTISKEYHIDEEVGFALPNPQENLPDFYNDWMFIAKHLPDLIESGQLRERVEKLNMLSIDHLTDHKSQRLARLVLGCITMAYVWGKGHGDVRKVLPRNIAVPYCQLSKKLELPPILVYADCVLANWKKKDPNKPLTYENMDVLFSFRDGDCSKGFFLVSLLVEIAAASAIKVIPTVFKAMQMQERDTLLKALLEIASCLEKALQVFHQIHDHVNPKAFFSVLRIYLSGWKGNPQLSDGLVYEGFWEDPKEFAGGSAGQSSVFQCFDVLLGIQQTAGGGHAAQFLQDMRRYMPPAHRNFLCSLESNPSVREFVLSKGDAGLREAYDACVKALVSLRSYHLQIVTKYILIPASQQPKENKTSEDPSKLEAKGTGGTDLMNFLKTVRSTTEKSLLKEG
The assay is described as follows: IDO inhibition assay in HEK293 cells stably expressing human IDO1 (kynurenine, Ehrlich reagent). Type of assay: cell-based. Conditions: 20 hours incubation, read-out: HEK Human IDO-1 Bio Activity. The procedure:
They were cultured in medium (DMEM with 10% FBS) containing 1 mg/ml G418 for two weeks.
The human IDO1/HEK293 cells were seeded at 10,000 cells per 50 μL per well with RPMI/phenol red free media contains 10% FBS in a 384-well black wall clear bottom tissue culture plate (Matrix Technologies LLC) 100 nL of certain concentration of compound was then added to each well using ECHO liquid handling systems. The cells were incubated for 20 hours in 37° C. incubator with 5% CO2.
The compound treatments were stopped by adding trichloroacetic acid (Sigma-Aldrich) to a final concentration at 0.2%. The cell plate was further incubated at 50° C. for 30 minute. The equal volume supernatant (20 μL) and 0.2% (w/v) Ehrlich reagent (4-dimethylaminobenzaldehyde, Sigma-Aldrich) in glacial acetic acid were mixed in a new clear bottom 384-well plate. This plate was then incubated at room temperature for 30 minute. The absorbance at 490 nm was measured on Envision plate reader.
With `CC(NC(=O)c1ccc(Cl)cc1)C1CCC(c2ccncc2F)CC1` (single isomer, unassigned) [Example 161b, 4-chloro-N-(1-(4-(3-fluoropyridin-4-yl)cyclohexyl)ethyl)benzamide], the pIC50 is more than 7.30.

In the case of `CC(NC(=O)c1ccc(Cl)cc1)C1CCC(c2ccncc2F)CC1` (single isomer, unassigned) [Example 161c, 4-chloro-N-(1-(4-(3-fluoropyridin-4-yl)cyclohexyl)ethyl)benzamide], the pIC50 is more than 6.60.

As to `N#Cc1ccc(NC(=O)N[C@H]2CC[C@H](c3ccnc4ccc(F)cc43)CC2)cc1` [Example 121], the pIC50 was more than 6.60.

For the compound `CCC(NC(=O)c1ccc(-c2ccccc2)cc1)[C@H]1CC[C@@H](c2cnc3ccccc3c2)CC1` (some centres unmarked) [Example 200], the pIC50 was more than 6.60.

`CC[C@@H](NC(=O)c1ccc(-c2ccccc2)cc1)[C@H]1CC[C@H](c2cnc3ccccc3c2)CC1` [Example 201, N—((R)-1-((1r,4R)-4-(quinolin-3-yl)cyclohexyl)propyl)-[1,1′-biphenyl]-4-carboxamide]: the pIC50 is more than 6.60.

Take `CC[C@H](NC(=O)c1ccc(-c2ccccc2)cc1)[C@H]1CC[C@H](c2cnc3ccccc3c2)CC1` [Example 202, N—((S)-1-((1r,4S)-4-(quinolin-3-yl)cyclohexyl)propyl)-[1,1′-biphenyl]-4-carboxamide]: the pIC50 is more than 7.30.

Consider `COc1ccc(-c2ccc(C(=O)N[C@H](C)[C@H]3CC[C@@H](c4ccnc5ccc(F)cc54)CC3)cc2)nc1` [Example 239, N-((R)-1-((1s,4S)-4-(6-fluoroquinolin-4-yl)cyclohexyl)ethyl)-4-(5-methoxypyridin-2-yl)benzamide], for which the pIC50 is more than 7.30.

Turning to “(R)-1-(cis-4-(6-fluoroquinolin-4- yl)cyclohexyl)-N-methylethanamine [Example 194]”, the pIC50 is more than 7.30.

The values above are taken from patent publication US10206893B2, “Immunoregulatory agents” (Flexus Biosciences, Inc., priority 2014, dated 2019).
